The source of these data is patent publication US20230126310A1 (priority 2020, published 2023).

This test relates to SARS-CoV-2. As to the kind of experiment: microbe, parasite or virus in culture. The conditions noted are these: Severe acute respiratory syndrome coronavirus 2, Caco-2, 48 h; for inhibition at 10 µM: read-out: % Inh. (% Inhibition of SARS-CoV-2).

The structures appear in SMILES notation. Structures can show the parent of a compound that is named as a salt. Where two headings read alike, the source gives them in different places. Peptide text beside a SMILES is read from it.

Take `OC1(c2ccc(Cl)c(C(F)(F)F)c2)CCN(CCCC(c2ccc(F)cc2)c2ccc(F)cc2)CC1` [PENFLURIDOL]: the inhibition at 10 µM is 85.9%.

Take `O=C(Nc1ccc(OC(F)(F)F)cc1)c1sccc1NCc1ccnc2ccccc12` [OSI-930]: the inhibition at 10 µM worked out at 100%.

In the case of `CCc1cc2cc(OC)c(OC)cc2c(Cc2ccccc2)n1` [Moxaverine], the inhibition at 10 µM turned out to be 68.7%.

For the compound `COC(=O)[C@H]1[C@H]2C[C@@H]3c4[nH]c5cc(OC)ccc5c4CCN3C[C@H]2C[C@@H](OC(=O)c2cc(OC)c(OC)c(OC)c2)[C@@H]1OC` [RESERPINE], the inhibition at 10 µM was found to be 67.8%.

Turning to `COc1cc2nccc(Oc3ccc(NC(=O)C4(C(=O)Nc5ccc(F)cc5)CC4)cc3)c2cc1OC` [cabozantinib], the inhibition at 10 µM came out at 57.5%.

With `Cc1nc(C#Cc2ccnc(Cl)c2)c(C)n1-c1ccc(F)cc1` [Basimglurant], the IC50 amounted to 25.2 µM. Moreover, the IC50 (read-out: pIC50 (converted)) was 25.1 µM.

`COc1ccc(S(=O)(=O)N2CCC[C@H]2C(=O)Nc2cc(C)cc(C)c2)cc1` [ACT-462206]: the inhibition at 10 µM stood at 53.8%.

`CC(C)C[C@H](NC(=O)[C@@H]1CCCN1)C(=O)NCC(N)=O` [prolylleucylglycinamide] (H-Pro-Leu-Gly-NH2): the inhibition at 10 µM was determined as 70.6%.

On to `OC[C@H]1O[C@@H](n2cnc3c(NC4CCCC4)nc(Cl)nc32)[C@H](O)[C@@H]1O` [2-chloro-N6-cyclopentyladenosine], for which the inhibition at 10 µM was 57.7%.

For `O=C(NC1CCN(CCCCC2(C(=O)NCC(F)(F)F)c3ccccc3-c3ccccc32)CC1)c1ccccc1-c1ccc(C(F)(F)F)cc1` [Lomitapide], the inhibition at 10 µM is 77.4%.

Turning to `Cc1ccccc1-n1c(CF)nc2ccc(N)cc2c1=O` [Afloqualone], the inhibition at 10 µM was 50.1%.

As to `O=C1NC(=S)NC(=O)C1C(=O)Nc1ccccc1` [merbarone], the inhibition at 10 µM was found to be 50.4%.

For the compound `N=C(N)c1ccc(OCCCCCOc2ccc(C(=N)N)cc2)cc1` [PENTAMIDINE ISETHIONATE], the inhibition at 10 µM is 54.6%.

Take `O=c1[nH]c2ccccc2n1C1CCN(CCOc2ccccc2)CC1` [oxiperomide]: the inhibition at 10 µM was determined as 77.9%.

Consider `CCc1nn(CCCN2CCN(c3cccc(Cl)c3)CC2)c(=O)n1CCOc1ccccc1` [NEFAZODONE HYDROCHLORIDE], for which the inhibition at 10 µM was 71.7%.

With `O=C(NO)c1cnc(N2CCN(S(=O)(=O)c3ccc4ccccc4c3)CC2)nc1` [R306465], the inhibition at 10 µM stood at 57.3%.

Turning to `c1ccc(OCc2ccc(CCCN3CCOCC3)cc2)cc1` [Fomocain], the inhibition at 10 µM worked out at 61.1%.

With `C[C@@H]1CN(Cc2ccc(F)cc2)[C@@H](C)CN1C(=O)c1cc2c(C(=O)C(=O)N(C)C)cn(C)c2cc1Cl` [talmapimod], the IC50 came to 22.9 µM and the inhibition at 10 µM came out at 92.3%. Also, the IC50 (read-out: pIC50 (converted)) is 22.9 µM.

Take `COc1cccc2cc(-c3nc([C@H]4CC[C@H](C(=O)O)CC4)n4ncnc(N)c34)[nH]c12` [OSI-027]: the inhibition at 10 µM worked out at 105%.

Take `Cc1cc2c(C(C)C)c(O)c(O)c(C=O)c2c(O)c1-c1c(C)cc2c(C(C)C)c(O)c(O)c(C=O)c2c1O` [gossypol]: the inhibition at 10 µM stood at 66.3%.

Take `Cn1cnc2c1c(=O)[nH]c(=O)n2C` [THEOBROMINE]: the inhibition at 10 µM came to 52.4%.

Turning to `O[C@@H](COc1cccc2ncccc12)CN1CCN([C@@H]2c3ccccc3[C@@H]3[C@H](c4ccccc42)C3(F)F)CC1` [LY335979 (Zosuquidar trihydrochloride), Zosuquidar trihydrochloride], the IC50 came to 26.8 µM and the inhibition at 10 µM was found to be 93%. Also, for the setting “read-out: pIC50 (converted)”, the IC50 is 26.9 µM.

For the compound `O=C(OCC(COC(=O)c1cccnc1)(COC(=O)c1cccnc1)COC(=O)c1cccnc1)c1cccnc1` [niceritrol], the inhibition at 10 µM was 50.1%.

`CC(=O)CC(c1ccc([N+](=O)[O-])cc1)c1c(O)c2ccccc2oc1=O` (stereo not shown) [Acenocoumarin]: the inhibition at 10 µM is 64.2%.

Take `NC(=O)N1C(=O)/C(=C(\O)c2cccs2)c2cc(Cl)ccc21` [tenidap]: the inhibition at 10 µM is 75.2%.

As to `COc1cc(CN2CCN(c3ccc(F)cc3)CC2)cc(OC)c1OC` [1-(4-fluorophenyl)-4-(3,4,5-trimethoxybenzyl)piperazine], the inhibition at 10 µM came to 67.3%.

Turning to `CC(=O)OCC(=O)[C@@]1(O)CC[C@H]2[C@@H]3CCC4=CC(=O)C=C[C@]4(C)[C@H]3[C@@H](O)C[C@@]21C` [PREDNISOLONE ACETATE], the inhibition at 10 µM stood at 60%.

As for `Clc1ccc(COC(Cn2ccnc2)c2ccc(Cl)cc2Cl)cc1` (stereo not shown) [ECONAZOLE NITRATE], the inhibition at 10 µM was determined as 87.3%.

Regarding `C/C(=N\NC(=S)NNC(=S)Nc1ccccc1Cl)c1ccccn1` [N-(2-chlorophenyl)-2-({(2E)-2-[1-(2-pyridinyl)ethylidene]hydrazino}carbothioyl)hydrazinecarbothioamide], the inhibition at 10 µM turned out to be 101%.

Consider `CC(=O)Nc1cccc(-n2c(=O)n(C3CC3)c(=O)c3c(Nc4ccc(I)cc4F)n(C)c(=O)c(C)c32)c1` [Trametinib], for which the inhibition at 10 µM worked out at 76.6%.

Regarding `O=C(/C=C/c1cccnc1)NCCCCC1CCN(C(=O)c2ccccc2)CC1` [FK-866], the inhibition at 10 µM was determined as 50.9%.

As to `CN1CCN(c2ccc(C(=O)Nc3n[nH]c4ccc(Cc5cc(F)cc(F)c5)cc34)c(NC3CCOCC3)c2)CC1` [Entrectinib (RXDX-101), Entrectinib], the inhibition at 10 µM turned out to be 70%.

As for `O=C1NC(c2cccc([N+](=O)[O-])c2)=CCN1c1ccccc1O` [icilin], the inhibition at 10 µM amounted to 55.1%.

On to `C=CCNc1c(O)cc2c(O)c1C[C@@H](C)C[C@H](OC)[C@H](O)[C@@H](C)/C=C(\C)[C@H](OC(N)=O)[C@@H](OC)/C=C\C=C(/C)C(=O)N2` [Retaspimycin (Hydrochloride)], for which the inhibition at 10 µM is 74.7%.

Turning to `Cc1nc2ccccn2c(=O)c1CCN1CCC(C(=O)c2ccc(F)cc2)CC1` [pirenperone], the inhibition at 10 µM is 64.1%.

For `N#CC1(c2ccc(NC(=O)c3cccnc3NCc3ccncc3)cc2)CCCC1` [Apatinib mesylate], the inhibition at 10 µM was 70.9%.

Consider `COC(=O)C1=C(C)NC(C)=C(C(=O)NCCCN2CCC(c3ccccc3)(c3ccccc3)CC2)C1c1ccc([N+](=O)[O-])cc1` (stereo not shown) [SNAP-5089], for which the inhibition at 10 µM turned out to be 72.6%.

As to `C=CC(N)CCC(=O)O` (stereo not shown) [Vigabatrin], the inhibition at 10 µM amounted to 52.5%.

Consider `CO[C@H]1C[C@H](O[C@@H]2/C(C)=C/C[C@@H]3C[C@@H](C[C@]4(CC[C@H](C)[C@@H](C5CCCCC5)O4)O3)OC(=O)[C@@H]3C=C(C)/C(=N/O)[C@H]4OC/C(=C\C=C\[C@@H]2C)[C@]43O)O[C@@H](C)[C@@H]1O` [SELAMECTIN], for which the inhibition at 10 µM was found to be 68.2%.

On to `COc1ccc(-n2nc(C(N)=O)c3c2C(=O)N(c2ccc(N4CCCCC4=O)cc2)CC3)cc1` [APIXABAN], for which the inhibition at 10 µM came out at 78%.

As to `COc1cc(C(=O)NC2CCN(C)CC2)c(F)cc1Nc1ncc2c(n1)N(C1CCCC1)CC(F)(F)C(=O)N2C` [TAK-960], the inhibition at 10 µM worked out at 91.6%.

For the compound `CCN1CCN(Cc2ccc(-c3cc4c(N[C@H](C)c5ccccc5)ncnc4[nH]3)cc2)CC1` [AEE788], the inhibition at 10 µM came to 90.9%.

For `CC1(C)CC[C@]2(C(=O)O)CC[C@]3(C)[C@H](C(=O)C=C4[C@@]5(C)C=C(C#N)C(=O)C(C)(C)[C@@H]5CC[C@]43C)[C@@H]2C1` [Bardoxolone], the inhibition at 10 µM is 66%.

In the case of `CCCCCCCCCCCCCCCC[N+](C)(C)Cc1ccccc1` [Benzyldimethylhexadecylammonium chloride hydrate], the inhibition at 10 µM came out at 57%.

As for `Cn1c(=O)n(-c2ccc(C(C)(C)C#N)cc2)c2c3cc(-c4cnc5ccccc5c4)ccc3ncc21` [Dactolisib (BEZ235, NVP-BEZ235), Dactolisib], the inhibition at 10 µM is 91.8%.

Consider `O=C(NC[C@H](O)CO)c1ccncc1Nc1ccc(I)cc1F` [Pimasertib (AS-703026), Pimasertib], for which the inhibition at 10 µM worked out at 53.2%.

Regarding `Oc1c(Cl)cc(Cl)c(Cl)c1Cc1c(O)c(Cl)cc(Cl)c1Cl` [HEXACHLOROPHENE], the inhibition at 10 µM stood at 92.9%.

As for `CNCC(O)c1ccc(OC(=O)C(C)(C)C)c(OC(=O)C(C)(C)C)c1` (stereo not shown) [dipivefrine], the inhibition at 10 µM worked out at 54%.

As to `CNC(=O)c1cccc(-c2ccc3c(N4CCOC[C@@H]4C)nc(N4CCOC[C@@H]4C)nc3n2)c1` [Vistusertib (AZD2014), Vistusertib], the inhibition at 10 µM turned out to be 112%.

In the case of `N#CC(=C(/N)Sc1ccccc1N)/C(C#N)=C(\N)Sc1ccccc1N` [U-0126], the inhibition at 10 µM stood at 79.1%.

For `C=C[C@H]1CN2CC[C@H]1C[C@H]2[C@H](OC(=O)OCC)c1ccnc2ccc(OC)cc12` [QUININE ETHYL CARBONATE], the inhibition at 10 µM worked out at 59.1%.

Take `CS(=O)(=O)CCNCc1nc(-c2ccc3ncnc(Nc4ccc(OCc5cccc(F)c5)c(Cl)c4)c3c2)cs1` [GW-583340]: the inhibition at 10 µM was 60.1%.

In the case of `Cc1c(-c2ccc(-c3ccccc3F)cc2)nc2ccc(F)cc2c1C(=O)O` [Brequinar sodium salt hydrate], the inhibition at 10 µM came out at 61%.

Regarding `N#CN1CCCC1` [pyrrolidine-1-carbonitrile], the inhibition at 10 µM is 65.9%.

Consider `Clc1ccc(C(Cn2ccnc2)OCc2ccsc2Cl)c(Cl)c1` (stereo not shown) [TIOCONAZOLE], for which the inhibition at 10 µM was 50.6%.

Regarding `CCN1C(=O)CNc2ncc(-c3ccc(-c4nc[nH]n4)nc3C)nc21` [CC-115], the inhibition at 10 µM was 96.6%.

For `Cc1cc(Nc2ncc(Cl)c(Nc3ccccc3S(=O)(=O)C(C)C)n2)c(OC(C)C)cc1C1CCNCC1` [Ceritinib], the inhibition at 10 µM amounted to 60%.

`C[C@H](/C=C/[C@H](C)C(C)(C)O)[C@H]1CC[C@H]2/C(=C/C=C3C[C@@H](O)C[C@H](O)C3)CCC[C@]12C` [PARICALCITOL]: the inhibition at 10 µM was found to be 86%.

Consider `CCc1cnn2c(NCc3ccc[n+]([O-])c3)cc(N3CCCC[C@H]3CCO)nc12` [Dinaciclib (SCH727965), Dinaciclib], for which the inhibition at 10 µM was determined as 79.4%.

Regarding `CNC(=O)[C@@H](NC(=O)[C@H](CC(C)C)[C@H](O)C(=O)NO)C(C)(C)C` [Marimastat], the inhibition at 10 µM turned out to be 68.7%.

In the case of `NC(=O)NS(=O)(=O)c1ccc(N)cc1` [SULFACARBAMIDE], the inhibition at 10 µM worked out at 58.1%.

On to `OCCOc1ccc(/C(=C(/CCCl)c2ccccc2)c2ccccc2)cc1` [Ospemifene], for which the inhibition at 10 µM came out at 52.9%.

In general, inhibition refers to the drop in the measured response relative to a control, in per cent.
